Each block holds one compound with its values, some of them ahead of it. Active and inactive are the calls of the source. No cut-off for these calls is given here.
Assays:
RIF-1 [1] = assay: Inhibition of COX2 expression levels in PH-PDT-treated mouse RIF1 cells at 400 uM after 24 hrs by Western blot analysis; type: functional, cell-based
RIF-1 [2] = assay: Cytotoxicity against mouse RIF1 cells at 50 to 800 uM after 24 hrs; type: cell-based; conditions: rif-1, 24 h
RIF-1 [3] = assay: Inhibition of COX2 expression levels in PH-PDT-treated mouse RIF1 cells at 500 uM after 24 hrs by Western blot analysis; type: functional, cell-based
[4] = target: T1, Prostaglandin G/H synthase 2 (Mus musculus) (UniProt Q05769); assay: Inhibition of COX-2 in PH-PDT-treated mouse RIF1 cells assessed as suppression of PGE2 production at 500 uM after 24 hrs by spectrophotometric analysis
T1 sequence (whole entry): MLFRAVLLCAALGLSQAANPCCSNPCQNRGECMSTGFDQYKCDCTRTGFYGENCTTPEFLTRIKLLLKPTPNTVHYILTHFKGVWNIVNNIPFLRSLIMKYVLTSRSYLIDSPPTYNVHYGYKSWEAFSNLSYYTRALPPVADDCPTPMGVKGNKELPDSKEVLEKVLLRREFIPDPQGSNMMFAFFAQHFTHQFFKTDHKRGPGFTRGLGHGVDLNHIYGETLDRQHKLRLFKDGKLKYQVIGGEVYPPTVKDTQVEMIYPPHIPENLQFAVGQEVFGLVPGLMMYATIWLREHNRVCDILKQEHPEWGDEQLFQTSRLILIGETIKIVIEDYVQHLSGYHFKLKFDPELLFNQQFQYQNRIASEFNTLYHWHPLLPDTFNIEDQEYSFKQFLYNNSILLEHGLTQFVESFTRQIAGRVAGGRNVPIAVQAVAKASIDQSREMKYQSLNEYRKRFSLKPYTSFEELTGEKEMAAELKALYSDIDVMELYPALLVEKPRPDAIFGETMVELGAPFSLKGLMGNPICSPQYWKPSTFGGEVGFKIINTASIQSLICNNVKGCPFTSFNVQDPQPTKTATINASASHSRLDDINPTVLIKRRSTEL

RIF-1 [5] = assay: Inhibition of COX2 expression levels in PH-PDT-treated mouse RIF1 cells at 62.5 uM after 24 hrs by Western blot analysis; type: functional, cell-based
RIF-1 [6] = assay: Inhibition of COX2 expression levels in PH-PDT-treated mouse RIF1 cells at 750 uM after 24 hrs by Western blot analysis; type: functional, cell-based
[7] = target: T1, Prostaglandin G/H synthase 2 (Mus musculus); assay: Inhibition of COX-2 in PH-PDT-treated mouse RIF1 cells assessed as suppression of PGE2 production at 750 uM after 24 hrs by spectrophotometric analysis
RIF-1 [8] = assay: Cytotoxicity against mouse RIF1 cells at 62.5 to 750 uM after 24 hrs; type: cell-based; conditions: rif-1, 24 h
[9] = target: T1, Prostaglandin G/H synthase 2 (Mus musculus); assay: Inhibition of COX-2 in PH-PDT-treated mouse RIF1 cells assessed as suppression of PGE2 production at 400 uM after 24 hrs by spectrophotometric analysis
[10] = target: T1, Prostaglandin G/H synthase 2 (Mus musculus); assay: Inhibition of COX-2 in PH-PDT-treated mouse RIF1 cells assessed as suppression of PGE2 production at 200 uM after 24 hrs by spectrophotometric analysis
RIF-1 [11] = assay: Inhibition of COX2 expression levels in PH-PDT-treated mouse RIF1 cells at 800 uM after 24 hrs by Western blot analysis; type: functional, cell-based
[12] = target: T1, Prostaglandin G/H synthase 2 (Mus musculus); assay: Inhibition of COX-2 in PH-PDT-treated mouse RIF1 cells assessed as suppression of PGE2 production at 800 uM after 24 hrs by spectrophotometric analysis
RIF-1 [13] = assay: Cytotoxicity against mouse RIF1 cells at 100 to 800 uM after 24 hrs; type: cell-based; conditions: rif-1, 24 h
RIF-1 [14] = assay: Cytotoxicity against mouse RIF1 cells at 500 to 1000 uM after 24 hrs; type: cell-based; conditions: rif-1, 24 h
RIF-1 [15] = assay: Inhibition of COX2 expression levels in PH-PDT-treated mouse RIF1 cells at 250 uM after 24 hrs by Western blot analysis; type: functional, cell-based
[16] = target: T1, Prostaglandin G/H synthase 2 (Mus musculus); assay: Inhibition of COX-2 in PH-PDT-treated mouse RIF1 cells assessed as suppression of PGE2 production at 250 uM after 24 hrs by spectrophotometric analysis
RIF-1 [17] = assay: Cytotoxicity against mouse RIF1 cells at 250 to 750 uM after 24 hrs; type: cell-based; conditions: rif-1, 24 h

SMILES: Cc1cc(OCc2ccc(C(F)(F)F)cc2)c(C)c2c1CC[C@H]1[C@H](C)C(=O)O[C@@H]21
inhibition (RIF-1 [1]): Active | Activity (RIF-1 [2]): Non-Toxic

SMILES: CC1=C2[C@@H]3OC(=O)[C@@H](C)[C@@H]3CC[C@@]2(C)C=CC1=O
inhibition (RIF-1 [3]): Active | inhibition [4]: Active | Activity (RIF-1 [14]): Non-Toxic

SMILES: Cc1cc(O)c(C)c2c1CC[C@H]1[C@H](C)C(=O)O[C@@H]21
inhibition (RIF-1 [3]): Active | inhibition (RIF-1 [15]): inactive | inhibition [16]: Active | Activity (RIF-1 [17]): Non-Toxic

The next lines start with results.

inhibition [4]: Active | inhibition [7]: Active
SMILES: Cc1cc(OCc2ccccc2)c(C)c2c1CC[C@H]1[C@H](C)C(=O)O[C@@H]21
inhibition (RIF-1 [3]): Active | inhibition (RIF-1 [5]): Active | inhibition (RIF-1 [6]): Active | Activity (RIF-1 [8]): Toxic

inhibition [9]: Active | inhibition [10]: Active | inhibition [12]: inactive
SMILES: CC(=O)Oc1cc(C)c2c(c1C)[C@@H]1OC(=O)[C@@H](C)[C@@H]1CC2
inhibition (RIF-1 [11]): Active | inhibition (RIF-1 [1]): inactive | Activity (RIF-1 [13]): Non-Toxic

From ChEMBL document CHEMBL4219112, “Rational drug design and synthesis of new α-Santonin derivatives as potential COX-2 inhibitors” (Bioorg Med Chem Lett, 2018)
